Drawing on patent US11021444B2, “Antiviral compounds” (priority 2013, dated 2021), this text covers EC50, CC50 and IC50 for 30 compounds.

Data set [1] has as its system Respiratory Syncytial Virus (RSV) long strain. Description: microbe, parasite or virus in culture. It counts as cell-based. Conditions: human respiratory syncytial virus, Tables A and B list compounds by EC50 band. In a few lines: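 CPE-reduction format: viability measured colorimetrically with CCK-8 (450 nm, 630 nm reference) after 3-4 h, following 5-day infection at 37 °C, 5% CO2. Cells were HEp-2; inoculum 100 TCID50/well; duplicate 9-point 1/3 series starting at 100 μM or 1 μM.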

The nature of data set [2]: Cytotoxicity Determination (CCK-8, without addition of virus). The format is cell-based. To be noted: human, 50% cytotoxicity concentration (CC50). In a few lines:
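Cytotoxicity was measured by CCK-8 after 3-4 hours at 37 °C, following 5 days of uninfected exposure at 37 °C and 5% CO2. Compounds ran as duplicate 7-point 1/2 dilutions starting at 100 μM, with 1% final DMSO. HEp-2 cells had been plated at 1,500/well the day before.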

The target of another data set is recombinant RSV complex (Human respiratory syncytial virus A, UniProt P28887). Description: RSV Polymerase Inhibition Assay. It counts as biochemical. In a few lines: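 Inhibition measured as reduced incorporation of radiolabel into RNA products, detected by scintillation counting. Reactions: recombinant RSV complex (10 nM), RNA oligonucleotides, Tris-HCl pH 7.5, 6 mM MgCl2, inhibitor titration, 2 h at 30 °C, EDTA stop.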
Chain of recombinant RSV complex (P28887 whole entry): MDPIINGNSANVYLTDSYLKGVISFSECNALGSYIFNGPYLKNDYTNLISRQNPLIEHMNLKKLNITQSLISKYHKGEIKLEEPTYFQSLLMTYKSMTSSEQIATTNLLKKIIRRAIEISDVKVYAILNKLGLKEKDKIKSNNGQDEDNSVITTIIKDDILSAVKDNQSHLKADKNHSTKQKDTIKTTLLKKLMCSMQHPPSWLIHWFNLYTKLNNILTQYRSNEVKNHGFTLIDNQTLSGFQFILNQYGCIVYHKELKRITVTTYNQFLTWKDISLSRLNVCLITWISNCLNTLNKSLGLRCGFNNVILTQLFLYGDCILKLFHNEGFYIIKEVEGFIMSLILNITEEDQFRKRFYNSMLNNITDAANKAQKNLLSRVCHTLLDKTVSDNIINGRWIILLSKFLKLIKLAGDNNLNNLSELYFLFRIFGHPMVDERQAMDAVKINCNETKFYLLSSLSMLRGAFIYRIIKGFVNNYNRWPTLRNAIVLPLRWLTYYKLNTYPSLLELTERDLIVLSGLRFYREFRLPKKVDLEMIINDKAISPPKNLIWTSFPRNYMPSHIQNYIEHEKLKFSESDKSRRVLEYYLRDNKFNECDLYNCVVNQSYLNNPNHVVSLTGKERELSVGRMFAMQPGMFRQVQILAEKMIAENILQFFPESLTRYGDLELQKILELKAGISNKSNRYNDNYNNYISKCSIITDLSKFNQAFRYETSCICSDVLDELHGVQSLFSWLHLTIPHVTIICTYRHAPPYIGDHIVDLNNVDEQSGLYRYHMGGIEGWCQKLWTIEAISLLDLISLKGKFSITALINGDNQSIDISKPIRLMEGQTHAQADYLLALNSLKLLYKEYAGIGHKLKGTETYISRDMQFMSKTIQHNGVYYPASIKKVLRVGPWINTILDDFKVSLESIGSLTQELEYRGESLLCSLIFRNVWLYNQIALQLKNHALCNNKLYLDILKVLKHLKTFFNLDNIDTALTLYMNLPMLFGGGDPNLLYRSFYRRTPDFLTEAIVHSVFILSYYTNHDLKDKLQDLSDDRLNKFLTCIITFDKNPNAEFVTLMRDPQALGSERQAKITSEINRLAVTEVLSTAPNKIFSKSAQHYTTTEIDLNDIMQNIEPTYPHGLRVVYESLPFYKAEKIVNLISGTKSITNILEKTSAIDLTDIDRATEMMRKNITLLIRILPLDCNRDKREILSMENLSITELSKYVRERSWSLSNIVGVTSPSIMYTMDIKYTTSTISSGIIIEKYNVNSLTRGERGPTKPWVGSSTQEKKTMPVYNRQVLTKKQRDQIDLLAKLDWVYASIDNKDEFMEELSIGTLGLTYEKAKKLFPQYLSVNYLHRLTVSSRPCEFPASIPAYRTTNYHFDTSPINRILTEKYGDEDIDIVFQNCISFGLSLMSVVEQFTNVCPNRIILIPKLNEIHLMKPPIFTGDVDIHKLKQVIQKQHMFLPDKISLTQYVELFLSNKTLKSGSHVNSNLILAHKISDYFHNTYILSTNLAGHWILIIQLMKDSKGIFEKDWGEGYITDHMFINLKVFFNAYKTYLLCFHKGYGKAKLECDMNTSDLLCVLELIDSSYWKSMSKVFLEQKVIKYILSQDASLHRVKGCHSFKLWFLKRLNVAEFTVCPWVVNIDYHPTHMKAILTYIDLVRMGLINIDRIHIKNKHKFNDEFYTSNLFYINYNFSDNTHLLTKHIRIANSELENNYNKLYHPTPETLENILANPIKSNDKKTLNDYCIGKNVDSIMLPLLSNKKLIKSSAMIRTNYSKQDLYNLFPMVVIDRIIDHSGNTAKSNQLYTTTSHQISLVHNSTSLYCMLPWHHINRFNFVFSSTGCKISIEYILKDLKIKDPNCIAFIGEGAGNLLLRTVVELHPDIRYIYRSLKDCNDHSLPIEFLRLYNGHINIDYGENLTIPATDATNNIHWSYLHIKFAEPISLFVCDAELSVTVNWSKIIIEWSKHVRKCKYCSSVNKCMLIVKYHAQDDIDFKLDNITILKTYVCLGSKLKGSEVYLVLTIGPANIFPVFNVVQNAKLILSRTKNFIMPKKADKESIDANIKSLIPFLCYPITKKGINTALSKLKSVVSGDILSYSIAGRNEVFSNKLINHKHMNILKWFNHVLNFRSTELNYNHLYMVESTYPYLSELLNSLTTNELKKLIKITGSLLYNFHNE
Chain of recombinant RSV complex (P03421 whole entry, further chain): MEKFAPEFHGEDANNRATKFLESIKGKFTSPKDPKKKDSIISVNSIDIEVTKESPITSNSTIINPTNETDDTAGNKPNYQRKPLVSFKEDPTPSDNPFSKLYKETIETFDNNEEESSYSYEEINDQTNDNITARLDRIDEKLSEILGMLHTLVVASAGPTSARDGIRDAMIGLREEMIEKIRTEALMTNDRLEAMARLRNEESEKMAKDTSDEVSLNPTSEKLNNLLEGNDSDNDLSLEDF

Where [3] appears, read: HEp-2, 120 h, read-out: 50% effective concentration (EC50), HEp-2 cells infected with RSV long strain, 5 days, CCK-8 readout.
Setting [4] is: 120 h, read-out: 50% effective concentration (EC50), HEp-2 cells infected with RSV long strain, 5 days, CCK-8 readout.

Like-named read-outs stand apart in the source and are kept apart here. Where only a bound is given, the exact number is not on record here.

On to `COc1ccc(C(O)(CNC(=O)c2ccc(OC3CCNC3=O)cc2)C(F)(F)F)nc1-c1ccc(F)c(Cl)c1` (stereo not drawn) [Compound 261], for which, in data set [1] (setting [3]), the EC50 is under 1 µM. In data set [2], this compound gave a CC50 at 5 days of 10 to 100 µM. Also, on recombinant RSV complex, the IC50 was under 1 µM.

Take `COc1ccc(C(O)(CNC(=O)c2ccc(OCCO)c(Cl)c2)C(F)(F)F)nc1-c1ccc(F)c(Cl)c1` (stereo not drawn) [Compound 262]: the EC50 in data set [1] (setting [3]) is under 1 µM. The same compound came in with a CC50 at 5 days in data set [2] of 10 to 100 µM. For the same compound, the IC50 on recombinant RSV complex is under 1 µM.

Turning to `COc1ccc(C(O)(CNC(=O)c2ccc3ncn(C)c3c2)C(F)(F)F)nc1-c1ccc(F)c(Cl)c1` (stereo not drawn) [Compound 264], in data set [1] (setting [3]), the EC50 lay within 1 to 50 µM. The compound also showed a cytotoxic concentration (CC50) at 5 days in data set [2] of 10 to 100 µM. In addition, the IC50 on recombinant RSV complex was under 1 µM.

For `COc1ccc(C(O)(CNC(=O)c2ccc3c(c2)ncn3C)C(F)(F)F)nc1-c1ccc(F)c(Cl)c1` (stereo not drawn) [Compound 265], in data set [1] (setting [3]), the EC50 was in the range of 1 to 50 µM. For the same compound, the CC50 at 5 days in data set [2] fell in the range of 10 to 100 µM. Also, the concentration for half-maximal inhibition (IC50) on recombinant RSV complex is under 10 µM.

In the case of `COc1ccc(C(O)(CNC(=O)c2ccc3ncoc3c2)C(F)(F)F)nc1-c1ccc(F)c(Cl)c1` (stereo not drawn) [Compound 266], the EC50 in data set [1] (setting [3]) is 1 to 50 µM. Moreover, the CC50 at 5 days in data set [2] lay in the range of 10 to 100 µM. Moreover, the IC50 at recombinant RSV complex is under 1 µM.

For `COc1ccc(C(O)(CNC(=O)c2ccc3[nH]c(=O)n(C)c3c2)C(F)(F)F)nc1-c1ccc(F)c(Cl)c1` (stereo not drawn) [Compound 267], the EC50 in data set [1] (setting [3]) is under 1 µM. Further, in data set [2], the CC50 at 5 days lay within 10 to 100 µM. Further, the IC50 at recombinant RSV complex was under 1 µM.

For the compound `COc1ccc(C(O)(CNC(=O)c2ccc3c(c2)[nH]c(=O)n3C)C(F)(F)F)nc1-c1ccc(F)c(Cl)c1` (stereo not drawn) [Compound 268], the EC50 in data set [1] (setting [3]) lay within 1 to 50 µM. The same compound displayed a CC50 at 5 days in data set [2] of 10 to 100 µM. Further, the IC50 at recombinant RSV complex is under 10 µM.

`COc1cc(C(=O)NCC(O)(c2ccc(OC)c(-c3ccc(F)c(Cl)c3)n2)C(F)(F)F)ccc1OCC1(O)CC1` (stereo not drawn) [Compound 270]: in data set [1] (setting [4]), the EC50 was under 1 µM. The compound further showed a CC50 at 5 days in data set [2] of 10 to 100 µM. In addition, the IC50 at recombinant RSV complex was under 1 µM.

For the compound `CC(C)(N)c1cc(-c2ccc(F)c(Cl)c2)nc(C(O)(CNC(=O)c2cscn2)C(F)(F)F)c1` (stereo not drawn) [Compound 277], the EC50 in data set [1] (setting [3]) was in the range of 1 to 50 µM. Further, the CC50 at 5 days in data set [2] was 10 to 100 µM. Moreover, the IC50 at recombinant RSV complex was under 10 µM.

Turning to `CC(C)(N)c1cc(-c2ccc(F)c(Cl)c2)nc(C(O)(CNC(=O)c2cncs2)C(F)(F)F)c1` (stereo not drawn) [Compound 278], the EC50 in data set [1] (setting [3]) lay within 1 to 50 µM. For the same compound, the CC50 at 5 days in data set [2] is 10 to 100 µM. Also, the IC50 at recombinant RSV complex is under 1 µM.

Take `Cc1nc(C(=O)NCC(O)(c2cc(C(C)(C)N)cc(-c3ccc(F)c(Cl)c3)n2)C(F)(F)F)cs1` (stereo not drawn) [Compound 279]: the EC50 in data set [1] (setting [3]) lay in the range of 1 to 50 µM. The compound also gave a half-maximal cytotoxic concentration (CC50) at 5 days in data set [2] of 10 to 100 µM. Also, the IC50 at recombinant RSV complex is under 1 µM.

Consider `COc1cc(C(=O)NCC(O)(c2cc(C(C)(C)N)cc(-c3ccc(F)c(Cl)c3)n2)C(F)(F)F)ccc1O[C@@H]1CCNC1=O` (stereo partly drawn) [Compound 285], for which the EC50 in data set [1] (setting [3]) was under 1 µM. Further, the CC50 at 5 days in data set [2] is 10 to 100 µM. The IC50 on recombinant RSV complex is under 1 µM.

Regarding `COc1cc(C(=O)NCC(C)(O)c2cc3c(c(-c4ccc(F)c(Cl)c4)n2)NCC3)ccc1OCCF` (stereo not drawn) [Compound 286], the EC50 in data set [1] (setting [3]) lay in the range of 1 to 50 µM. Further, in data set [2], the cytotoxic concentration (CC50) at 5 days was in the range of 10 to 100 µM. Moreover, the 50% inhibitory concentration (IC50) at recombinant RSV complex was under 10 µM.

For the compound `COc1cc(C(=O)NCC(=O)c2cc3c(c(-c4c[nH]c5c(F)cccc45)n2)OCC3)ccc1OCCF` [Compound 287], the EC50 in data set [1] (setting [3]) was under 1 µM. Moreover, the half-maximal cytotoxic concentration (CC50) at 5 days in data set [2] was over 100 µM. The IC50 on recombinant RSV complex was under 1 µM.

For the compound `COc1cc(C(=O)NCC(C)(O)c2cc3cc[nH]c3c(-c3ccc(F)c(Cl)c3)n2)ccc1OCCF` (stereo not drawn) [Compound 290], the EC50 in data set [1] (setting [4]) is 1 to 50 µM. Further, the CC50 at 5 days in data set [2] was 10 to 100 µM. The IC50 on recombinant RSV complex was under 10 µM.

In the case of `COc1cc(C(=O)NCC(O)(c2cc3c(c(-c4c[nH]c5c(F)cccc45)n2)OCC3)C2CC2)ccc1OCCO` (stereo not drawn) [Compound 297], in data set [1] (setting [3]), the EC50 was under 1 µM. The same compound registered a CC50 at 5 days in data set [2] of 10 to 100 µM. In addition, the IC50 on recombinant RSV complex is under 1 µM.

As to `COc1cc(C(=O)NCC(O)(c2cc3c(c(-c4ccc(F)c(C(C)F)c4)n2)OCCC3(C)C)C2CC2)ccc1OCCO` (stereo not drawn) [Compound 299], the EC50 in data set [1] (setting [3]) is under 1 µM. In data set [2], this compound registered a CC50 at 5 days of 10 to 100 µM. Moreover, on recombinant RSV complex, the IC50 is under 1 µM.

Regarding `COc1cc(C(=O)NCC(=O)c2cc3c(c(-c4ccc(F)c(Cl)c4)n2)OCC3C)ccc1OCCO` (stereo not drawn) [Compound 305], the EC50 in data set [1] (setting [3]) is under 1 µM. This compound also showed a CC50 at 5 days in data set [2] of 10 to 100 µM. The IC50 at recombinant RSV complex was under 1 µM.

On to `CCc1cc(-c2ccc(F)cc2)nc(C(C)(O)CNC(=O)c2ccc(OCCO)c(OC)c2)c1` (stereo not drawn) [Compound 353], for which the EC50 in data set [1] (setting [3]) was under 1 µM. In addition, the CC50 at 5 days in data set [2] was over 100 µM. Also, on recombinant RSV complex, the IC50 was under 1 µM.

Take `COc1cc(C(=O)NCC(C)(C)c2ccc(OC)c(-c3ccc(F)c(Cl)c3)n2)ccc1OCCO` [Compound 368]: the EC50 in data set [1] (setting [3]) was under 1 µM. Further, the CC50 at 5 days in data set [2] lay in the range of 10 to 100 µM. Besides, the IC50 on recombinant RSV complex is under 100 µM.

As to `COc1cc(C(=O)NCC(O)(c2ccc(OC)c(-c3ccc(F)c(Cl)c3)n2)C2CC2)ccc1CCCO` (stereo not drawn) [Compound 426], the EC50 in data set [1] (setting [3]) was under 1 µM. For the same compound, the half-maximal cytotoxic concentration (CC50) at 5 days in data set [2] is 10 to 100 µM. For the same compound, the IC50 on recombinant RSV complex was under 10 µM.

Regarding `COc1cc(C(=O)NCC(O)(c2ccc(OC)c(-c3ccc(F)c(Cl)c3)n2)C2CC2)ccc1OC(F)F` (stereo not drawn) [Compound 432], in data set [1] (setting [3]), the EC50 was in the range of 1 to 50 µM. Also, the CC50 at 5 days in data set [2] was in the range of 10 to 100 µM. For the same compound, at recombinant RSV complex, the IC50 was under 1 µM.

In the case of `COc1cc(C(=O)NCC(F)(CF)c2ccc(OC)c(-c3ccc(F)c(Cl)c3)n2)ccc1OCCO` (stereo not drawn) [Compound 435], the EC50 in data set [1] (setting [3]) is under 1 µM. Besides, in data set [2], the cytotoxic concentration (CC50) at 5 days lay in the range of 10 to 100 µM. Further, the IC50 at recombinant RSV complex is under 1 µM.

In the case of `CCc1cc(-c2ccc(F)c(Cl)c2)nc(C(C)(O)CNC(=O)c2ccc(OCC(F)F)c(OC)c2)c1` (stereo not drawn) [Compound 440], in data set [1] (setting [4]), the EC50 is 1 to 50 µM. In data set [2], this compound returned a CC50 at 5 days of 10 to 100 µM. Besides, the 50% inhibitory concentration (IC50) on recombinant RSV complex was under 1 µM.

In the case of `CNc1ccc(C(O)(CNC(=O)c2ccc(OC3CC3)c(OC)c2)C(F)(F)F)nc1-c1ccc(F)c(Cl)c1` (stereo not drawn) [Compound 451], the EC50 in data set [1] (setting [3]) is under 1 µM. For the same compound, the CC50 at 5 days in data set [2] is over 100 µM. Further, the IC50 on recombinant RSV complex was under 1 µM.

Turning to `COc1cc(C(=O)NCC(O)(c2ccc(OC)c(-c3ccc(F)c(Cl)c3)n2)C2CNC2)ccc1OC1CC1` (stereo not drawn) [Compound 463], the EC50 in data set [1] (setting [3]) fell in the range of 1 to 50 µM. Moreover, the CC50 at 5 days in data set [2] was in the range of 10 to 100 µM. Besides, at recombinant RSV complex, the half-maximal inhibitory concentration (IC50) is under 1 µM.

`COc1cc(C(=O)NCC(O)(c2cc(C(N)=O)cc(-c3ccc(F)c(Cl)c3)n2)C(F)(F)F)ccc1OC1CC1` (stereo not drawn) [Compound 464]: the EC50 in data set [1] (setting [3]) is under 1 µM. In data set [2], this compound came in with a CC50 at 5 days of 10 to 100 µM. Also, the IC50 at recombinant RSV complex was under 1 µM.

As to `COc1cc(C(=O)NCC(O)(c2cc(CO)cc(-c3ccc(F)c(Cl)c3)n2)C(F)(F)F)ccc1OC1CC1` (stereo not drawn) [Compound 465], the EC50 in data set [1] (setting [3]) was under 1 µM. The compound further came in with a CC50 at 5 days in data set [2] of 10 to 100 µM. The IC50 on recombinant RSV complex was under 1 µM.

In the case of `COc1cc(C(=O)NCC(O)(CO)c2ccc(OC)c(-c3ccc(F)c(Cl)c3)n2)ccc1OC1CC1(F)F` (stereo not drawn) [Compound 469], the EC50 in data set [1] (setting [3]) was under 1 µM. The compound also had a CC50 at 5 days in data set [2] of 10 to 100 µM. Further, at recombinant RSV complex, the IC50 is under 1 µM.

`COc1cc(C(=O)NCC(C)(CO)c2ccc(OC)c(-c3ccc(F)c(Cl)c3)n2)ccc1OCCO` (stereo not drawn) [Compound 471]: the EC50 in data set [1] (setting [3]) was in the range of 1 to 50 µM. In addition, the CC50 at 5 days in data set [2] fell in the range of 10 to 100 µM. Moreover, the IC50 on recombinant RSV complex is under 10 µM.

A word on the CC50: it is the concentration at which the toxic effect on the cells reaches its halfway point. A word on the IC50: it is the point on the concentration scale where inhibition reaches its midpoint.
